The values that follow come from patent US5591752A, “Quinoline derivative” (Ube Industries, Ltd., priority 1993, dated 1997).

The term pKi denotes the negative decadic logarithm of the Ki, by convention in mol/L. A lower pKi goes with a high Ki.

pKi: −log10 of the molar value. Where two headings read alike, the source gives them in different places.

The target of the assay is T1, Leukotriene D4 (LTD4) receptor (Cavia porcellus, UniProt Q2NNR5).
T1 construct: lung cell membrane fractions of guinea pigs were used; from tissue; host or cells: lung membrane fractions of Hartley strain male guinea pigs
T1 sequence (Q2NNR5 1-340): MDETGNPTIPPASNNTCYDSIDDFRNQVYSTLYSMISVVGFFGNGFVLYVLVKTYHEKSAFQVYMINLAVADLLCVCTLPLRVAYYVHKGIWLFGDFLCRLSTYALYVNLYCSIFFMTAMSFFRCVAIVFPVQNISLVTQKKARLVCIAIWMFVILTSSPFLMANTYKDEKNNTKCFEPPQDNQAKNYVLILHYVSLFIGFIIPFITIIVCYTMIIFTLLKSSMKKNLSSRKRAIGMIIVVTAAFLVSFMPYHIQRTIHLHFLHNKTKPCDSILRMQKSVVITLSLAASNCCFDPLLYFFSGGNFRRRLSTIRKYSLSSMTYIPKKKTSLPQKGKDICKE
Put plainly: Leukotriene D4 receptor binding test ([3H]ICI-198615 displacement, lung cell membrane fractions). Conditions: guinea pig lung membranes, [3H]ICI-198615 about 0.2 nM, pKi=-log Ki; for pKi: pKi value; for Ki: read-out: pKi value (converted). As to the method: Leukotriene D4 receptor binding test
<Preparation of receptor samples>
As receptor samples, lung cell membrane fractions of guinea pigs were used. The membrane fractions were prepared according to the method of Ahn et al. (Ahn, H. S. & Barnett, A. (1986) Eur. J. Pharmacol., 127, 153.). After Hartley strain male guinea pigs (body weight: 400 to 500 g, supplied by Nihon SLC Co.) were killed by exsanguination, lungs were extracted and perfused with a physiological saline solution (Otsuka Seiyaku) from lung arteries. The extracted lungs were cut into pieces immediately or after the lungs were stored by freezing them at -80 ° C. A 10-fold amount of a buffer solution (pH 7.4) of 10 mM PIPES, 10 mM MgCl2, 10 mM CaCl2 and 50 mM NaCl was added thereto and the mixtures were made suspensions by a homogenizer (manufactured by Yamato Co., LP-41C Model). After the suspensions were filtered with gauze, the filtrates were centrifuged by an ultracentrifuge (manufactured by Hitachi Co., 70P-72 Model) with 50,000 g for 10 minutes, whereby membrane fractions were deposited. The membrane fractions were washed twice and then suspended in the same buffer solution to obtain receptor samples. Measurement of a protein concentration was conducted by the Lowry method (Lowry, O, H. et al. (1951) J. Biol. Chem., 193,265.) by using bovine serum albumin as a standard protein. The samples prepared (protein amount: 10 to 25 mg/ml) were stored by freezing them at -80° C. and used for experiments.
<Leukotriene D4 receptor binding test>
The leukotriene D4 (LTD4) receptor binding test was conducted according to the method of O'Sullivan et al. (O'Sullivan, B. P. & Mong, S. (1989) Mol. Pharmacol., 35, 795.). The receptor samples were diluted with a buffer solution (pH 7.4) of 10 mM PIPES, 10 mM MgCl2, 10 mM CaCl2 and 50 mM NaCl and 0.42 mg/ml in terms of a protein amount was used. As a labeling compound, [^3 H]ICI-198615 (produced by Du Pont Co., 60 Ci/mmol) which specifically binds to the LTD4 receptor was used. [^3 H]ICI-198615 and a compound to be tested were dissolved in dimethylsulfoxide and a 1/50 amount (2% by volume) of the solution was added to the receptor-diluted solutions, respectively. 500 μl of each reaction mixture was incubated at 25° C. for 40 minutes and then filtered with a glass fiber filter (Whatman, GF/B type) by using a cell harvester (manufactured by Brandel Co., M-30R Model). The filters were washed with 10 ml of an ice-cooled 100 mM NaCl-50 mM phosphate buffer solution (pH 7.5) and subjected to ultrasonic treatment in 9 ml of a liquid scintillator (manufactured by Nacalai Tesque, Co., Clear sol I) for 2 minutes. Thereafter, radioactivity was measured by a liquid scintillation counter (manufactured by Packard Co., 2000 CA Model). In a test of determining a dissociation constant of ICI-198615, 0.1 to 2 nM [^3 H]ICI-198615 and 10 μM non-radioactive ICI-198615 were used. In a test of determining inhibition constants of the respective compounds to be tested, [^3 H]ICI-198615 having a concentration of about 0.2 nM and the compounds each having a concentration of 0.1 pM to 0.1 mM were used.
<Data analysis of receptor binding test>
The dissociation constant (Kd) of ICI-198615 and the binding inhibition constants (Ki) of the respective compounds to be tested were determined by the following numerical formulae (A), (B) and (C).
wherein B: a concentration of a label [3H] which is bound to a receptor, Bmax: a maximum receptor-binding concentration of a label [^3 H], F: a concentration of a label [^3 H] which is not bound to a receptor, [L]: a concentration of a label [^3 H], IC50 : a concentration of a compound which inhibits 50% of binding of a label [^3 H] to a receptor and pKi: a logarithm, of a reciprocal of Ki.

`O=C(O)CCSC1c2ccc(-c3nn[nH]n3)cc2COc2ccc(OCc3ccc4ccccc4n3)cc21` (stereo not drawn) [Example 17, 11-(2-Carboxyethylthio)-2-(quinolin-2-yl)methoxy-8-(tetrazol-5-yl)-6,11-dihydrodibenz[b,e]oxepine] gave a pKi of 8.80.

Consider `Cc1ccccc1S(=O)(=O)NC(=O)CCSC1c2ccccc2COc2ccc(OCc3ccc4ccc(Cl)cc4n3)cc21` (stereo not drawn) [Example 40, 2-(7-Chloroquinolin-2-yl)methoxy-11-[2-[(2-methylphenylsulfonyl)aminocarbonyl]ethylthio]-6,11-dihydrodibenz[B,e]oxepine], for which the Ki was 2.51 nM.

As to `CC(SC1c2ccccc2COc2ccc(OCc3ccc4ccccc4n3)cc21)C(=O)O` (stereo not drawn) [Example 23, 11-(1-Carboxyethylthio)-2-(quinolin-2-yl)methoxy-6,11-dihydrodibenz[b,e]oxepine], the Ki is 5.01 nM.

`O=C(O)CCSC1c2ccccc2COc2ccc(OCc3ccc4cc(F)c(Cl)cc4n3)cc21` (single isomer, unassigned; (-)) [Example 51, (-)-11-(2-Carboxyethylthio)-2-(7-chloro-6-fluoroquinolin-2-yl)methoxy-6,11-dihydrodibenz[b,e]oxepine] showed a pKi of 8.90.

Compound `O=C(O)CCSC1c2ccc(-c3nn[nH]n3)cc2COc2ccc(OCc3ccc4ccc(Cl)cc4n3)cc21` (stereo not drawn) [Example 18, 11-(2-Carboxyethylthio)-2-(7-chloroquinolin-2-yl)methoxy-8-(tetrazol-5-yl)-6,11-dihydrodibenz[b,e]oxepine] showed a pKi of 9.70.

In turn, `O=C(O)CCSC1c2ccc(SCC(=O)O)cc2COc2ccc(OCc3ccc4ccc(Cl)cc4n3)cc21` (stereo not drawn) [Example 16, 11-(2-Carboxyethylthio)-8-carboxymethylthio-2-(7-chloroquinolin-2-yl)methoxy-6,11-dihydrodibenz[b,e]oxepine] had a pKi of 9.20.

As to `O=C(O)CCCSC1c2ccccc2COc2ccc(OCc3ccc4ccc(Cl)cc4n3)cc21` (stereo not drawn) [Example 24, 11-(3-Carboxypropylthio)-2-(7-chloroquinolin-2-yl)methoxy-6,11-dihydrodibenz[b,e]oxepine], the negative logarithm of the Ki (pKi) was 8.60.

Regarding `O=C(O)COC1c2ccccc2COc2ccc(OCc3ccc4ccc(Cl)cc4n3)cc21` (stereo not drawn) [Example 27, 11-Carboxymethoxy-2-(7-chloroquinolin-2-yl)methoxy-6,11-dihydrobenz[b,e]oxepine], the Ki is 5.01 nM.

For `NC(=O)c1cccc2c1COc1ccc(OCc3ccc4ccc(Cl)cc4n3)cc1C2SCCC(=O)O` (stereo not drawn) [Example 20, 7-Carbamoyl-11-(2-carboxyethylthio)-2-(7-chloroquinolin-2-yl)methoxy-6,11-dihydrodibenz[b,e]oxepine], the pKi was 9.20.

`O=C(CSC1c2ccccc2COc2ccc(OCc3ccc4ccc(Cl)cc4n3)cc21)NS(=O)(=O)c1ccccc1` (stereo not drawn) [Example 39, 11-[(Phenylsulfonyl)aminocarbonyl]methylthio-2-(7-chloroquinolin-2-yl)methoxy-6,11-dihydrodibenz[b,e]oxepine]: the Ki is 2 nM.

`O=C(O)CCSC1c2ccccc2COc2ccc(OCc3ccc4ccc(Cl)cc4n3)cc21` (single isomer, unassigned; (+)) [Example 52, (+)-11-(2-Carboxyethylthio)-2-(7-chloroquinolin-2-yl)methoxy-6,11-dihydrodibenz[b,e]oxepine] gave a pKi of 9.50.

Take `O=C(O)CCSC1c2ccccc2COc2ccc(OCc3ccc4cc(Cl)ccc4n3)cc21` (stereo not drawn) [Example 5, 11-(2-Carboxyethylthio)-2-(6-chloroquinolin-2-yl)methoxy-6,11-dihydrodibenz[b,e]oxepine]: the pKi is 8.50.

`O=C(CSC1c2ccccc2COc2ccc(OCc3ccc4ccccc4n3)cc21)NS(=O)(=O)c1ccccc1` (stereo not drawn) [Example 41, 11-[(Phenylsulfonyl)aminocarbonyl]methylthio-2-(quinolin-2-yl)methoxy-6,11-dihydrodibenz[b,e]oxepine]: the Ki was 1.26 nM.

Regarding `N#Cc1cccc2c1COc1ccc(OCc3ccc4ccc(Cl)cc4n3)cc1C2SCCC(=O)O` (stereo not drawn) [Example 15, 11-(2-Carboxyethylthio)-2-(7-Chloroquinolin-2-yl)methoxy-7-cyano-6,11-dihydrodibenz[b,e]oxepine], the pKi is 9.20.

Regarding `O=C(O)CCSC1c2ccccc2COc2ccc(OCc3ccc4ccc(Cl)cc4n3)cc21` (single isomer, unassigned; (-)) [Example 53, (-)-11-(2-Carboxyethylthio)-2-(7-chloroquinolin-2-yl)-methoxy-6,11-dihydrodibenz[b,e]oxepine], the pKi was 8.40.

Compound `O=C(O)CCSC1c2cc(OCc3ccc4ccc(Cl)cc4n3)ccc2OCc2c(-c3nn[nH]n3)cccc21` (stereo not drawn) [Example 19, 11-(2-Carboxyethylthio)-2-(7-chloroquinolin-2-yl)methoxy-7-(tetrazol-5-yl)-6,11-dihydrodibenz[b,e]oxepine] showed a pKi of 9.30.

In turn, `O=C(O)CCSC1c2ccc(Br)cc2COc2ccc(OCc3ccc4ccc(Cl)cc4n3)cc21` (stereo not drawn) [Example 14, 8-Bromo-11-(2-carboxyethylthio)-2-(7-chloroquinolin-2-yl)-methoxy-6,11-dihydrodibenz[b,e]oxepine] showed a pKi of 8.50.

In turn, `Clc1ccc2ccc(COc3ccc4c(c3)C(SCCc3nn[nH]n3)c3ccccc3CO4)nc2c1` (stereo not drawn) [Example 30, 2-(7-Chloroquinolin-2-yl)methoxy-11-[2-(tetrazol-5-yl)ethylthio]-6,11-dihydrodibenz[b,e]oxepine] showed a pKi of 8.70.

For `CC(=O)CCc1ccc2c(c1)COc1ccc(OCc3ccc4cc(F)c(Cl)cc4n3)cc1C2SCCC(=O)O` (stereo not drawn) [Example 48, 11-(2-Carboxyethylthio)-2-(7-chloro-6-fluoroquinolin-2-yl)methoxy-8-(2-acetylethyl)-6,11-dihydrodibenz[b,e]oxepine], the pKi is 9.70.

Consider `Cc1cccc2c1C(SCCC(=O)O)c1cc(OCc3ccc4ccc(Cl)cc4n3)ccc1OC2` (stereo not drawn) [Example 12, 11-(2-Carboxyethylthio)-2-(7-chloroquinolin-2-yl)methoxy-10-methyl-6,11-dihydrodibenz[b,e]oxepine], for which the pKi was 8.30.

With `Clc1ccc2ccc(COc3ccc4c(c3)C(OCCc3nn[nH]n3)c3ccccc3CO4)nc2c1` (stereo not drawn) [Example 31, 2-(7-Chloroquinolin-2-yl)methoxy-11-[2-(tetrazol-5-yl)ethoxy]-6,11-dihydrodibenz[b,e]oxepine], the Ki is 2 nM.
